In patent US9422493B2, “Tritylated alkyl aryl ethers” (Rohm and Haas Company, priority 2012, dated 2016):

Columns and labels:
Type in all cases: physicochemical
[1] = Solubility studies: 0.1 g marker candidate in 0.9 g solvent, solution stability at 60 C, room temperature and -10 C
Description: Solutions were made from 0.1 grams of marker candidate and 0.9 grams of solvent. The mixtures were warmed briefly to 60° C. to completely dissolve the marker candidate, then the solutions were cooled to room temperature. The solutions were then placed into a −10° C. freezer, and the stability of the solutions was monitored for at least 7 days.
DPGME is dipropylene glycol mono-methyl ether and NMP is N-methylpyrrolidone; AROMATIC 200 and AROMATIC 150 are mixed aromatic solvents available from Exxon Mobil Corp.

[2] = Stability and extractability of marker in xylenes solution against laundering agents, analysed by GC; details: 2000 mg/kg in xylenes, room temperature, 8 hours
[3] = Sunlight stability of marker solution, checked by GC
[4] = 75:25 Aromatic 200H: cyclohexanone
[5] = 75:25 Aromatic 200H: o-sec-butylphenol

CCCCCCCCCCCCOc1c(C(C)C)cc(C(c2ccccc2)(c2ccccc2)c2ccccc2)cc1C(C)C
SOLUBILITY BEHAVIOR −10 C. [1, 4]: xtls 4D

CCCCCCCCCCCCOc1c(C(C)CC)cc(C(c2ccccc2)(c2ccccc2)c2ccccc2)cc1C(C)CC (centres unmarked)
SOLUBILITY BEHAVIOR −10 C. [1, 4]: sol 7D sol 7D | SOLUBILITY BEHAVIOR −10 C. [1, 5]: sol 7D sol 7D

CCCCCCCCCCCCOc1c(C(C)(C)C)cc(C(C)(C)C)cc1C(c1ccccc1)(c1ccccc1)c1ccccc1
SOLUBILITY BEHAVIOR −10 C. [1, 4]: xtls 6D xtls 6D | SOLUBILITY BEHAVIOR −10 C. [1, 5]: xtls 6D xtls 6D

CCCCCCCCCCCCOc1ccc(C(c2ccccc2)(c2ccccc2)c2ccccc2)cc1C(C)C
SOLUBILITY BEHAVIOR −10 C. [1, 4]: sol 7D | SOLUBILITY BEHAVIOR −10 C. [1, 5]: xtls 3D

CCCCCCCCCCOc1ccc(C(c2ccccc2)(c2ccccc2)c2ccccc2)cc1C(C)CC (centres unmarked) [DecTsBuPh]
% Change ([2]; 2% Charcoal): −0.76% | % Change ([2]; 5% Bleach): 1.08% | % Change ([2]; 5% H2SO4, 5% by weight): −0.04% | % Change ([2]; 5% NaOH, 5% by weight, GC vs stock solution): 0.10% | % Change ([2]; 50% NaOH, 5% by weight): 0.60% | % Change ([2]; 98% H2SO4, 5% by weight): −1.84% | % Change ([2]; Fuller's Earth): 0.79% | % Change ([2]; Iron Specks (2% metal specs wt/wt)): 1.76% | […] −10 C. ([1]; Aromatic 200): sol 33D | […] −10 C. ([1]; DPGDME): sol 33D | % Change ([3]; Apr. 5, 2012): −1.90% | % Change ([3]; Apr. 13, 2012): 2.40% | % Change ([3]; Apr. 23, 2012): 0.90% | % Change ([3]; May 8, 2012): −1.40% | % Change ([3]; May 15, 2012): 1.80%

CCCCCCCCCCCCOc1ccc(C(c2ccccc2)(c2ccccc2)c2ccccc2)cc1C(C)(C)C
SOLUBILITY BEHAVIOR −10 C. [1, 4]: sol 7D sol 7D | SOLUBILITY BEHAVIOR −10 C. [1, 5]: sol 7D sol 7D

CCCCCCCCCCCCOc1c(C(C)(C)C)cc(C(c2ccccc2)(c2ccccc2)c2ccccc2)cc1C(C)(C)C
SOLUBILITY BEHAVIOR −10 C. [1, 4]: sol 7D sol 7D | SOLUBILITY BEHAVIOR −10 C. [1, 5]: sol 7D sol 7D
